For data set [1], the target named is T1, Melanin-concentrating hormone receptor 2 (Homo sapiens, UniProt Q969V1). Description: Antagonist activity at human MCHR2 receptor expressed in CHO cells assessed as inhibition of MCH-stimulated Ca2+ flux preincubated for 10 mins prior to MCH-stimulation by FLIPR assay. The format is functional, cell-based. In general terms: Calcium flux is commonly read through the fluorescence of an indicator in the cells.

Data set [2] in a line: Oral bioavailability in rat at 2 mg/kg. The format is ADME, organism-based. The following applies: in vivo.
A short description of data set [3]: Clearance in rat at 0.5 mg/kg, iv. To be noted: in vivo. The format is ADME, organism-based. Also on record: dose 0.5 mg/kg, route intravenous.
A short description of data set [4]: Mean residence time in rat at 0.5 mg/kg, iv. The format is ADME, organism-based. Also on record: dose 0.5 mg/kg, route intravenous. To be noted: in vivo.
Data set [5] deals with T2, Melanin-concentrating hormone receptor 1 (Homo sapiens, UniProt Q99705). The data set can be described thus: Antagonist activity at MCHR1 by FLIPR assay. The format is functional.
T2 sequence (Q99705 whole entry): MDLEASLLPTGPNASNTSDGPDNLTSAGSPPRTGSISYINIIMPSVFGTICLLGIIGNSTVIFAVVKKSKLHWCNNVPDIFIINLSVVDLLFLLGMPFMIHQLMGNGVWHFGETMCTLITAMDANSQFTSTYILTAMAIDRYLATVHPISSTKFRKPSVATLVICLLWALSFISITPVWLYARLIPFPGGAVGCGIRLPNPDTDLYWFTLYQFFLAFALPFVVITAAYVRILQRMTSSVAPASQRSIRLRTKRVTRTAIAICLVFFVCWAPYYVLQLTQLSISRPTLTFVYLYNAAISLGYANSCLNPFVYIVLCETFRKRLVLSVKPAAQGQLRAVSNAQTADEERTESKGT
Another data set has as its target D(2) dopamine receptor (Homo sapiens, UniProt P14416). Description: Inhibition of dopamine D2 receptor.
Data set [6] deals with Sodium-dependent serotonin transporter (Homo sapiens, UniProt P31645). Description: Inhibition of serotonin transporter.
Sequence of Sodium-dependent serotonin transporter (P31645 whole entry): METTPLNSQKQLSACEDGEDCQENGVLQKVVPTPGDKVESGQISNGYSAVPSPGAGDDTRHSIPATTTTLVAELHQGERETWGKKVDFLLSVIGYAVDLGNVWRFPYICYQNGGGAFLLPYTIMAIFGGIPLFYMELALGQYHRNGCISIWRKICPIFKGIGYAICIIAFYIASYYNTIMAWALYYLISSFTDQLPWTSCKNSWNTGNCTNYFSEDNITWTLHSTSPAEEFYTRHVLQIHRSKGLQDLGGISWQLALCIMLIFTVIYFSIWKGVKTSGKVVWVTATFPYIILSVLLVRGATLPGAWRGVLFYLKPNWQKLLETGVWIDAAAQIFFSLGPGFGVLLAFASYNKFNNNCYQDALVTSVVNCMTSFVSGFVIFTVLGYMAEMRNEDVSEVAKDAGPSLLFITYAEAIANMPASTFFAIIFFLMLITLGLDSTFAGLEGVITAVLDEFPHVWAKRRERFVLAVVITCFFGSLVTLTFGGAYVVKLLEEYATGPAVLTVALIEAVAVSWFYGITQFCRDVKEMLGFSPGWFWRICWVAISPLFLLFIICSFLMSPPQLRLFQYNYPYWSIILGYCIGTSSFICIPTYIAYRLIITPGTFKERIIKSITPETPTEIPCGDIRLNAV
In data set [7] the target is T2, Melanin-concentrating hormone receptor 1. The data set can be described thus: Antagonist activity at MCHR1 up to 50 uM by FLIPR assay. The format is functional.
Data set [8] is filed under the species Homo sapiens. The data set can be described thus: Selectivity ratio of IC50 for dopamine D2 receptor to IC50 for human MCHR2 receptor.
The nature of data set [9]: Oral bioavailability in Beagle dog at 2 mg/kg. The format is ADME, organism-based, Canis lupus familiaris. The following applies: in vivo.
In data set [10] the target is T2, Melanin-concentrating hormone receptor 1. The data set can be described thus: Binding affinity to MCHR1 up to 10 uM.
Data set [11] in a line: Clearance in rhesus monkey. The format is ADME, organism-based, Macaca mulatta. The following applies: in vivo.
In data set [12] the target is Voltage-gated inwardly rectifying potassium channel KCNH2 (Homo sapiens, UniProt Q12809). Description: Inhibition of human ERG by rubidium [86Rb] efflux assay.
Sequence of Voltage-gated inwardly rectifying potassium channel KCNH2 (Q12809 whole entry): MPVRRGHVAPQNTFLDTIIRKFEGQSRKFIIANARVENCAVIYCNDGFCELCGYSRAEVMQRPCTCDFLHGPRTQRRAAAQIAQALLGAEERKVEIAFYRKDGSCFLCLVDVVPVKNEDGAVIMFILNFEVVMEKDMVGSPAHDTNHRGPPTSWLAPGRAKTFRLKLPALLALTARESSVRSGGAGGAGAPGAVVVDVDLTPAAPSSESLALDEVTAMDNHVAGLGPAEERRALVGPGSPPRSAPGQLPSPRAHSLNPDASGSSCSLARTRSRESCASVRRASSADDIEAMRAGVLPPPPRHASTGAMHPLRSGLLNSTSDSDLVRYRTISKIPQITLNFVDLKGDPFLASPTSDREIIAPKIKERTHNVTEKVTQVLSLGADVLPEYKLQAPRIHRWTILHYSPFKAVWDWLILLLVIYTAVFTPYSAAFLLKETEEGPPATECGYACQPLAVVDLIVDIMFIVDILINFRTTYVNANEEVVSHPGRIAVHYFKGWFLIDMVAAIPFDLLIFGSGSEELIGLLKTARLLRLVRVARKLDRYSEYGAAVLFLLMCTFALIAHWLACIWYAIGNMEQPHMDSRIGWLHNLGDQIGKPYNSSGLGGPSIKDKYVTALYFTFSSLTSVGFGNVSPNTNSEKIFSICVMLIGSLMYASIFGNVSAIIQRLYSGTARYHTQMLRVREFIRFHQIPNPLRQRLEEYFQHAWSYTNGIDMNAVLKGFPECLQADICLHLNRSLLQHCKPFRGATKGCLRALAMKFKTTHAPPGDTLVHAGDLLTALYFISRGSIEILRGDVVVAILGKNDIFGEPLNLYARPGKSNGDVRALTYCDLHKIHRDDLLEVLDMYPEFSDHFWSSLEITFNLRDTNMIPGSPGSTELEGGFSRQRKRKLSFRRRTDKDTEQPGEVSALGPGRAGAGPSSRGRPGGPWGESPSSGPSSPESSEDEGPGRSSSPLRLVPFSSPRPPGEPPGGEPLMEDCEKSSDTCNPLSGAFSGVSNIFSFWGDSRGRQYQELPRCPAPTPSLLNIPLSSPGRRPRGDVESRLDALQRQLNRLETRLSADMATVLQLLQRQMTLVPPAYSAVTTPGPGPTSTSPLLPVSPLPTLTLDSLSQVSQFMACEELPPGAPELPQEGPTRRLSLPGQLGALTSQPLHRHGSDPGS
For data set [13], the species on record is Homo sapiens. The data set can be described thus: Selectivity ratio of IC50 for serotonin transporter to IC50 for human MCHR2 receptor.
Data set [14] can be described thus: Oral bioavailability in rhesus monkey at 2 mg/kg. The format is ADME, organism-based, Macaca mulatta. The following applies: in vivo.
Data set [15] is described as follows: Clearance in Beagle dog. The format is ADME, organism-based, Canis lupus familiaris. To be noted: in vivo.
Data set [16] is described as follows: Mean residence time in rhesus monkey. The format is ADME, organism-based, Macaca mulatta. To be noted: in vivo.
Data set [17] has as its target T1, Melanin-concentrating hormone receptor 2. Description: Displacement of [3H]N-(1'-((9-ethyl-9H-carbazol-3-yl)methyl)-2,3-dihydrospiro[indene-1,4'-piperidine]-3-yl)acetamide from human MCHR2 expressed in HEK293 cells after 2 hrs. The format is cell-based. For orientation: Displacement assays read how much labelled ligand stays bound in the presence of the test substance.

Data set [18] is described as follows: Mean residence time in Beagle dog. The format is ADME, organism-based, Canis lupus familiaris. To be noted: in vivo.

The source made the active and inactive calls. No cut-off for these calls is given here.

This is an account of results in ChEMBL document CHEMBL1932960, “Discovery and characterization of a potent and selective antagonist of melanin-concentrating hormone receptor 2” (Bioorg Med Chem Lett, 2012).

T1 sequence (Q969V1 whole entry): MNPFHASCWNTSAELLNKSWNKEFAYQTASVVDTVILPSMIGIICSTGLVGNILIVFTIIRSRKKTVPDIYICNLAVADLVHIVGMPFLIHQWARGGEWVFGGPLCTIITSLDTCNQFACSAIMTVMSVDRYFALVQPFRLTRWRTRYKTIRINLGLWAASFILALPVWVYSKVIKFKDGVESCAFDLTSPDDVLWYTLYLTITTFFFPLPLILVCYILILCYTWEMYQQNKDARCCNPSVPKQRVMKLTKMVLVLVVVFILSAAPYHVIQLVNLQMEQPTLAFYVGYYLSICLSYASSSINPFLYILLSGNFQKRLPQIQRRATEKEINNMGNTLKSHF
Sequence of D(2) dopamine receptor (P14416 whole entry): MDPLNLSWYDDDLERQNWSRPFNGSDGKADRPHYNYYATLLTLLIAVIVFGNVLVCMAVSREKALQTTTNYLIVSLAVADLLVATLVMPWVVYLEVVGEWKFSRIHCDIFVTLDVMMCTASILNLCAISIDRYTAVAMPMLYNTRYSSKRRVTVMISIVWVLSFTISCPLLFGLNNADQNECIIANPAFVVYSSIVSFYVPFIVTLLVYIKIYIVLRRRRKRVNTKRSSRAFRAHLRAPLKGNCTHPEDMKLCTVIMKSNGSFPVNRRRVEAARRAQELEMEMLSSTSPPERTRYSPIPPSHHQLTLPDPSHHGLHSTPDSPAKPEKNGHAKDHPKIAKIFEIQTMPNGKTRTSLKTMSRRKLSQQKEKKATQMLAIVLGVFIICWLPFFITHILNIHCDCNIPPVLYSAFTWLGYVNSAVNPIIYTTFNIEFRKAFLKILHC

Usually IC50 stands for the midpoint of a concentration-inhibition curve. Turning to `CCn1c2ccccc2c2cc(CN3CCC4(CC3)c3ccccc3CC4NC(C)=O)ccc21` (racemic), the IC50 in [1] came out at 250 nM.
One may read the bioavailability as dose-corrected exposure relative to a reference, in per cent. The clearance is the volume of plasma or blood freed of the substance per unit of time. The term MRT denotes a mean duration of stay, worked out from the concentration-time curve. With `CC(=O)N[C@@H]1CC2(CCN(Cc3ccc4[nH]c5ccccc5c4c3)CC2)c2ccccc21`, the bioavailability in data set [2] came out at 7.5%. Besides, the clearance in [3] was 20 mL/min/kg. The IC50 in data set [1] stood at 0.1 nM. This compound displayed an MRT in data set [4] of 18.2 h.
In data set [2], `CCn1c2ccccc2c2cc(CN3CCC4(CC3)c3ccccc3[C@H](NC(C)=O)[C@H]4O)ccc21` (racemic) showed a bioavailability of 9%. The same compound gave a clearance in data set [3] of 36.7 mL/min/kg. For the same compound, the IC50 in data set [1] stood at 100 nM. The MRT in data set [4] came out at 14.2 h.
Consider `C1=CC2(CCN(Cc3ccc4[nH]c5ccccc5c4c3)CC2)c2ccccc21`, for which the IC50 in data set [1] came out at 100 nM.
Consider `CC(=O)N[C@@H]1CC2(CCN(Cc3ccc4[nH]c5ccc(F)cc5c4c3)CC2)c2ccccc21`, for which, in data set [1], the IC50 amounted to 10 nM.
As to `CC(=O)N[C@H]1c2ccccc2C2(CCN(Cc3ccc4[nH]c5ccccc5c4c3)CC2)[C@@H]1O` (racemic), in [1], the IC50 amounted to 8 nM.
Turning to `CCn1c2ccccc2c2cc(CN3CCC4(CC3)c3ccccc3CC4O)ccc21` (racemic), in data set [1], the IC50 stood at 30 nM.
As to `CCn1c2ccccc2c2cc(CN3CCC4(C=Cc5ccccc54)CC3)ccc21`, the IC50 came to 1000 nM in [1] and 20000 nM in data set [5].
With `CCn1c2ccccc2c2cc(CCN3CCC4(C=Cc5ccccc54)CC3)ccc21`, the IC50 in [1] was found to be 10000 nM.
On the same count and under the same terms, under `CCn1c2ccccc2c2cc(NC(=O)N3CCC4(C=Cc5ccccc54)CC3)ccc21` stands 60000 nM.
In data set [2], `CC(=O)N[C@@H]1CC2(CCN(Cc3ccc4[nH]c5ccc(Cl)cc5c4c3)CC2)c2ccccc21` gave a bioavailability of 49%. Moreover, the clearance in data set [3] is 13.3 mL/min/kg. In addition, the IC50 in [1] is 1 nM; at D(2) dopamine receptor it was 500 nM; in data set [6], 100 nM. This compound gave an MRT in data set [4] of 9.2 h.
Turning to `CCn1c2ccccc2c2cc(CCCN3CCC4(C=Cc5ccccc54)CC3)ccc21`, the IC50 in [1] came to 15000 nM.
Usually Ki stands for the equilibrium dissociation constant of an inhibitor or competing ligand from its target. As for `CC(=O)N[C@@H]1CC2(CCN(Cc3ccc4c(c3)c3ccccc3n4C(N)=O)CC2)c2ccccc21`, the bioavailability in [2] was found to be 37%; in data set [9], 73%; in data set [14], 47%. For the same compound, the outcome in [7] and in data set [10] was inactive. Also, the Ratio IC50 in the data set filed under Homo sapiens [8] and in the data set listed under Homo sapiens [13] was > 500 in each case. Besides, the figures for the clearance in data set [11], in data set [3] and in data set [15] were 10 mL/min/kg, 16.7 mL/min/kg and 10 mL/min/kg, respectively. Further, the IC50 in [12] was found to be 2000 nM; in [1] it was 1 nM; at D(2) dopamine receptor it was 1500 nM; in data set [6] it was 10000 nM. In addition, the MRT came out at 6.1 h in data set [16], 18 h in data set [4] and 11 h in data set [18]. In data set [17], the Ki was 13 nM.
Turning to `CS(=O)(=O)n1c2ccccc2c2cc(CN3CCC4(C=Cc5ccccc54)CC3)ccc21`, the IC50 in data set [1] came to 200 nM.
For `CCn1c2ccccc2c2cc(C(=O)N3CCC4(C=Cc5ccccc54)CC3)ccc21`, the IC50 in [1] stood at 60000 nM.
Same read-out and setting: under `CC(=O)N[C@H]1CC2(CCN(Cc3ccc4[nH]c5ccccc5c4c3)CC2)c2ccccc21` stands 13 nM; under `CC(=O)n1c2ccccc2c2cc(CN3CCC4(C=Cc5ccccc54)CC3)ccc21`, 70 nM; under `NC(=O)n1c2ccccc2c2cc(CN3CCC4(C=Cc5ccccc54)CC3)ccc21`, 4 nM.
For `CCC(=O)n1c2ccccc2c2cc(CN3CCC4(C=Cc5ccccc54)CC3)ccc21`, the concentration for half-maximal inhibition (IC50) in data set [1] stood at 100 nM.
Same read-out and setting: with `CCn1c2ccccc2c2cc(CN3CCC4(CC3)c3ccccc3[C@H](O)[C@H]4O)ccc21` (racemic) the figure was 150 nM; with `CN(C)C(=O)n1c2ccccc2c2cc(CN3CCC4(C=Cc5ccccc54)CC3)ccc21`, 4 nM; with `CC(=O)N[C@@H]1CC2(CCN(Cc3ccc4[nH]c5ccc(C(F)(F)F)cc5c4c3)CC2)c2ccccc21`, 678 nM.
Still for that read-out and setting: with `CC(=O)N[C@@H]1CC2(CCN(Cc3ccc4[nH]c5ccc(Br)cc5c4c3)CC2)c2ccccc21` the figure was 10 nM; with `COC(=O)n1c2ccccc2c2cc(CN3CCC4(C=Cc5ccccc54)CC3)ccc21`, 300 nM.
Take `CCn1c2ccccc2c2cc(CN3CCC4(CC3)c3ccccc3[C@H](O)[C@@H]4O)ccc21` (racemic): in [1], the IC50 was found to be 250 nM.
In data set [2], `O[C@@H]1Cc2ccccc2C12CCN(Cc1ccc3[nH]c4ccccc4c3c1)CC2` registered a bioavailability of 5.9%. Moreover, the clearance in data set [3] is 145 mL/min/kg. Further, in data set [1], the IC50 worked out at 10 nM. Besides, the MRT in data set [4] was found to be 2.8 h.
For the compound `O[C@H]1Cc2ccccc2C12CCN(Cc1ccc3[nH]c4ccccc4c3c1)CC2`, in [1], the IC50 is 80 nM.
Regarding `CCn1c2ccccc2c2cc(CN3CCC4(CC3)CC(O)c3ccccc34)ccc21` (racemic), the IC50 in [1] worked out at 200 nM.
Consider `CCn1c2ccccc2c2cc(CN3CCC4(CC3)CC(NC(C)=O)c3ccccc34)ccc21` (racemic), for which, in data set [1], the IC50 came out at 0.1 nM.
